From US5914313A, “1-[4-hydroxy-5-aminoethyloxy-N^2 -(10,12-dimethyl-1-oxotetradecyl)ornithine]-5-(3-hydroxyglutamine)-6-(3- hydroxyproline)echinocandin B, other aminoalkyl derivatives and salts thereof” (Merck & Co., Inc., priority 1993, dated 1999)

Assays:
Candida albicans MY 1055 [1] = assay: In vivo effectiveness: recoverable Candida CFU in kidneys of infected mice; conditions: 0.4 mg/kg I.P. twice daily for four consecutive days; DBA/2 mice; kidneys after seven days
Description: Growth from an overnight SDA culture of Candida albicans MY 1055 was suspended in sterile saline and the cell concentration determined by hemacytometer count and the cell suspension adjusted to 3.75×10^5 cells/ml. Then 0.2 milliliter of this suspension was administered I.V. in the tail vein of mice so that the final inoculum was 7.5×10^4 cells/mouse.
The assay then was carried out by administering aqueous solutions of Compound I (R1 =--CH2 CH2 NH2) at various concentrations intraperitoneally (I.P.), twice daily (b.i.d.) for four consecutive days to 18 to 20 gram female DBA/2 mice, which previously had been infected with Candida albicans (MY 1055) in the manner described above. Distilled water was administered I.P. to C. albicans challenged mice as controls. After seven days, the mice were sacrificed by carbon dioxide gas, paired kidneys were removed aseptically and placed in sterile polyethylene bags containing 5 milliters of sterile saline. The kidneys were homogenized in the bags, serially diluted in sterile saline and aliquots spread on the surface of SDA plates. The plates were incubated at 35° C. for 48 hours and yeast colonies were enumerated for determination of colony forming units (CFU) per-gram of kidneys.

[2] = tested on: Candida tropicalis MY 1012; assay: Minimum fungicidal concentration (MFC), microbroth dilution assay in YNBD; format: cell-based; conditions: YNBD medium; MFC = lowest concentration showing no growth or less than 4 colonies per spot
From the text: (§1) The compounds of the present invention are active against many fungi and as previously indicated particularly against Candida species. The antifungal properties may be illustrated with the minimum fungicidal concentration (MFC) determination against certain Candida organisms in a microbroth dilution assay carried out in a Yeast Nitrogen Base (Difco) medium with 1 percent dextrose (YNBD).
(§2) In carrying out the assay, Compound I was solubilized in 10 percent dimethyl sulfoxide (DMSO) and diluted to 2560 μg/ml. The compound was then diluted to 256 μg/ml in YNBD. 0.15 mL of the suspension was dispensed to the top row of a 96-well plate (each well containing 0.15 ml of YNBD) resulting in a drug concentration of 128 μg/ml. Two-fold dilutions were then made from the top row to obtain final drug concentrations ranging from 128 to 0.06 μg/ml.
(§3) The yeast cultures, maintained on Sabouraud dextrose agar were transferred to YN broth (Difco) and incubated overnight at 35° C. with shaking (250 rpm). After incubation, each culture was diluted in sterile water to yield a final concentration of 1-5×10^6 colony forming units (CFU)/ml.
(§4) 96-well microplates were inoculated using a MIC-2000 (Dynatech) which delivers […] per well yielding a final inoculum per well of 1.5-7.5×10^3 cells. The microplates were incubated at 35° C. for 24 hours. The minimum inhibitory concentrations (MICs) were recorded as the lowest concentrations of drug showing no visible growth.
(§5) After recording the MIC, the plates were shaken to resuspend the cells. Thereafter, 1.5 μl samples from the wells in the 96-well microplate were transferred to a single well tray containing Sabouraud dextrose agar. The inoculated trays were incubated 24 hours at 28° C. and then read for minimum fungicidal concentration (MFC). MFC is defined as the lowest concentration of drug showing no growth or less than 4 colonies per spot.

Candida albicans MY 1055 [3] = assay: as above; format: cell-based; conditions: YNBD medium; MFC = lowest concentration showing no growth or less than 4 colonies per spot
From the text: as §1, §2, §3, §4, §5

Candida albicans MY 1750 = assay: Minimum fungicidal concentration (MFC), separate similar experiment; format: cell-based
From the text: as §1
In carrying out the assay, Compound I was solubilized in 10 percent dimethyl sulfoxide (DMSO) and diluted to 2560 μg/ml. The compound was then diluted to 256 μg/ml in YNBD. 0.15 mL of the suspension was dispensed to the top row of a 96-well plate (each well containing 0.15 ml of YNBD) resulting in a drug concentration of 128 μg/ml. Two-fold dilutions were then made from the top row to obtain final drug concentrations ranging from 128 to 0.06 μg/ml. […]
96-well microplates were inoculated using a MIC-2000 (Dynatech) which delivers […] per well yielding a final inoculum per well of 1.5-7.5×10^3 cells. […] The minimum inhibitory concentrations (MICs) were recorded as the lowest concentrations of drug showing no visible growth.
After recording the MIC, the plates were shaken to resuspend the cells. […] The inoculated trays were incubated 24 hours at 28° C. and then read for minimum fungicidal concentration (MFC). […]

Pneumocystis carinii = Pneumocystis carinii pneumonia in immunosuppressed rats, reduction of cysts; format: in vivo, Sprague-Dawley rats; conditions: subcutaneous, twice daily for four days
Description: The compounds of the present invention may also be useful for inhibiting or alleviating Pneumocvstis carinii infections in immune compromised patients. […] Before drug treatment, two rats are sacrificed to confirm the presence of Pneumocystis carinii pneumonia (PCP). Five rats (weighing approximately 150 grams) are injected twice daily for four days subcutaneously (sc) with Compound I in 0.25 ml of vehicle (distilled water). A vehicle control is also carried out. All animals continue to receive dexasone in the drinking water and low protein diet during the treatment period. At the completion of the treatment, all animals are sacrificed, the lungs are removed and processed, and the extent of disease determined by microscopic examination of stained slides for the presence of cysts.
The dosage required for 90 percent reduction of cysts with representative compounds may be seen in the following table: […]

human blood cells = assay: Red blood cell lysis, minimum lytic concentration (MLC); format: cell-based; conditions: 2 hours at room temperature, lowest concentration giving complete or partial lysis, tested 400 to 0.20 μg/ml
From the text: A harmful and potentially fatal side reaction of a number of drugs including certain antibiotically active echinocandin compounds is red blood cell lysis. […] The blood cell lysis property may be seen in the determination carried out in the following manner.
The blood employed is a 4 percent suspension of freshly drawn heparinized blood prepared by adding 2 milliliters of blood to 50 milliliters of sterile 5 percent dextrose.
Compoufid I was solubilized in a small volume of dimethylsulfoxide (DMSO) that was then diluted with distilled water to a final concentration of 5 percent DMSO to obtain a drug solution of 4.0 mg/ml. A 0.2 milliliter amount of the drug solution was added to 1.4 milliliters of sterile 5 percent dextrose to obtain the test solution. A diluent control was also prepared.
A 96-well microtiter plate with a well volume of 0.35 ml was used for the assay. Columns 2-12 were filled with 150 µl of sterile 5 percent dextrose. Then, 300 μl of test solutions were dispensed into the wells in column 1 and serially two-fold diluted in 5 percent dextrose to yield final test concentrations of from 400 to 0.20 μg/ml. 38 μl of red blood cell suspension were added to each well, the plate was gently agitated to mix the well contents and incubated at room temperature for 2 hours, and thereafter observed to determine extent of hemolysis as indicated by complete or partial clearing (lysis).

Substance	reduction of recoverable Candida CFUs (kidneys) (Candida albicans MY 1055 [1])	MFC C. tropicalis MY 1012 [2] [µg/mL]	MFC C. albicans MY 1055 (Candida albicans MY 1055 [3]) [µg/mL]	MFC C. albicans MY 1750 (Candida albicans MY 1750) [µg/mL]	dosage required for 90 percent reduction of cysts (Pneumocystis carinii) [mg/kg]	MLC (minimum lytic concentration) (human blood cells) [µg/mL]
1-[4-hydroxy-5-aminoethyloxy-N^2 -(10,12-dimethyl-1-oxotetradecyl)ornithine]-5-(3-hydroxyglutamine)-6-(3-hydroxyproline) echinocandin B trifluoroacetate [--CH2 CH2 NH2 / DMTD]	greater than 99%	0.25	0.125			
Glycylaminoethyloxy Ether as the Trifluoroacetate [--CH2 CH2 NHCOCH2 NH2 / DMTD]		0.5	1.0	0.50	0.04	> 400
